{
  "source": "the supplement of paper PMC10307832",
  "experiment_in_all_cases": "relative viability (nuclei count vs DMSO), 5 days (fraction); higher = more cells survive",
  "key": {"[1]": {"compound": "COc1cc2nc(N3CCCN(C)CC3)nc(NC3CCN(Cc4ccccc4)CC3)c2cc1OC + Cc1nc(Nc2ncc(C(=O)Nc3c(C)cccc3Cl)s2)cc(N2CCN(CCO)CC2)n1 [Dasatinib] (partner 0.075 µM)", "procedure,_shortened": "(§1)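 Relative viability was taken as the ratio of nuclei in treated wells to nuclei in vehicle wells. Lung cancer cell lines in 1536-well plates received compounds by pin tool one day after seeding, either one drug alone or a fixed anchor-drug dose plus five library-drug doses (not always all listed) in √10 steps. Nuclei were counted on 4× images after 5 days of treatment, and values are medians of duplicate plates.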"}, "[2]": {"compound": "COc1cc2nc(N3CCCN(C)CC3)nc(NC3CCN(Cc4ccccc4)CC3)c2cc1OC + O=C(c1cc(Cc2n[nH]c(=O)c3ccccc23)ccc1F)N1CCN(C(=O)C2CC2)CC1 [Olaparib] (partner 8 µM)", "procedure,_shortened": "as §1"}, "[3]": {"compound": "Cc1cc([C@@H](C)Nc2ccccc2C(=O)O)c2nc(N3CCOCC3)cc(=O)n2c1 [AZD6482] + CS(=O)(=O)N1CCN(Cc2cc3nc(-c4cccc5[nH]ncc45)nc(N4CCOCC4)c3s2)CC1 [Pictilisib] (partner 1 µM)", "procedure,_shortened": "as §1"}, "[4]": {"compound": "Cc1cc([C@@H](C)Nc2ccccc2C(=O)O)c2nc(N3CCOCC3)cc(=O)n2c1 [AZD6482] + O=C(c1cc(Cc2n[nH]c(=O)c3ccccc23)ccc1F)N1CCN(C(=O)C2CC2)CC1 [Olaparib] (partner 8 µM)", "procedure,_shortened": "as §1"}},
  "data": [
    {"cell line": "UMC-11", "values": [
      {"measurement": "relative viability", "setting": "[1]; first compound 0.2 µM", "result": 0.464},
      {"measurement": "relative viability", "setting": "[1]; first compound 0.6325 µM", "result": 0.435},
      {"measurement": "relative viability", "setting": "[1]; first compound 2 µM", "result": 0.468},
      {"measurement": "relative viability", "setting": "[1]; first compound 6.325 µM", "result": 0.286},
      {"measurement": "relative viability", "setting": "[2]; first compound 0.2 µM", "result": 0.38},
      {"measurement": "relative viability", "setting": "[2]; first compound 0.6325 µM", "result": 0.391},
      {"measurement": "relative viability", "setting": "[2]; first compound 2 µM", "result": 0.385},
      {"measurement": "relative viability", "setting": "[2]; first compound 6.325 µM", "result": 0.221},
      {"measurement": "relative viability", "setting": "[3]; first compound 0.08 µM", "result": 0.757},
      {"measurement": "relative viability", "setting": "[3]; first compound 0.253 µM", "result": 0.817},
      {"measurement": "relative viability", "setting": "[3]; first compound 0.8 µM", "result": 0.841},
      {"measurement": "relative viability", "setting": "[3]; first compound 2.53 µM", "result": 0.503},
      {"measurement": "relative viability", "setting": "[3]; first compound 8 µM", "result": 1.04},
      {"measurement": "relative viability", "setting": "[4]; first compound 0.08 µM", "result": 0.738},
      {"measurement": "relative viability", "setting": "[4]; first compound 0.253 µM", "result": 0.358},
      {"measurement": "relative viability", "setting": "[4]; first compound 0.8 µM", "result": 0.357},
      {"measurement": "relative viability", "setting": "[4]; first compound 2.53 µM", "result": 0.345},
      {"measurement": "relative viability", "setting": "[4]; first compound 8 µM", "result": 0.338}
    ]}
  ]
}
